# From patent US20030139467A1, “Diuretics containing y-tocotrienol” (priority 2000, published 2003)
# What was measured:
# [1] = Amount of γ-CEHC excreted in urine after oral γ-tocotrienol or γ-tocopherol in vitamin E-deficient rats; format: in vivo, Sprague-Dawley strain male rats; details: oral 10 mg/0.5 ml in stripped corn oil, total over 48 hours, versus γ-tocopherol in the same amount, FIG. 2
# Protocol: (§1) Seven-week-old Sprague-Dawley strain male rats, purchased from Nippon Clare Co., Ltd., were preliminarily bred with solid feed CE-2 (Nippon Clare Co., Ltd.) for 1 week and then bred with vitamin E-deficient feed for 4 weeks. The rats were placed in a stainless steel cage/rat, and the breeding room was maintained at a temperature of 22±1° C. in 50 % humidity. The animals were allowed feed and water ad libitum.
# (§2) The feed was prepared by adding 10% corn oil (stripped corn oil) from which vitamin E had been removed by molecular distillation, to vitamin E-deficient powdery feed.
# (§3) The bred vitamin E-deficient-rats were divided into 2 groups and fasted for 17 hours, and each rat in one group was orally given 10 mg/0.5 ml γ-tocotrienol dissolved in stripped corn oil, while as the control, each rat in the other group was orally given 10 mg/0.5 ml γ-tocopherol in analogous manner. After the administration, the rats in a urine collection group were placed in a metabolic cage/rat, and their urine was collected at 6-hours intervals for 48 hours during which a collection vessel was cooled on dry ice. The rats in a bile collection group were anesthetized with Nembutal in 2 hours after the administration in consideration of absorption time, and the abdomens of the rats were opened with their back fixed under anesthesia and a canula was inserted into the bile duct. […]
# [2] = Amount of γ-CEHC excreted in bile after oral γ-tocotrienol or γ-tocopherol in vitamin E-deficient rats; format: in vivo, Sprague-Dawley strain male rats; details: oral 10 mg/0.5 ml in stripped corn oil, bile collected for 24 hours, versus γ-tocopherol, FIG. 3
# Protocol: as §1, §2, §3
# [3] = Effect of γ-tocotrienol on urine volume and on excretion of sodium and potassium into urine; format: in vivo, SD strain male rats; details: for volume of urine, corrected with creatinine: high-salt feed groups, FIG. 4
# Protocol: Seven-week-old SD strain male rats (n=20) were preliminarily bred with solid feed and divided into 2 groups. One group was given vitamin E-deficient feed (AIN-76) and used as a control group. The other group was given high-salt feed prepared by adding 5% common salt to 1 kg vitamin E-deficient feed and used as a group given high-salt (high-Na) feed. Each animal in both the groups was given 20 g feed/day for 1 week and 25 g feed/day during a period of from the second to fourth weeks. 150 ml of purified water was given as drinking water, and the remainder of the water was measured. After 4 weeks, each group was further divided into 2 groups, and each rat in one group was given 10 mg γ-tocotrienol (control +γ-tocotrienol, High-Na+γ-tocotrienol) dissolved in stripped corn oil while the other group i.e. the control was given stripped corn oil (control, High-Na) for 3 consecutive days respectively, and after administration, their urine, while being frozen on dry ice, was collected at 6-hours intervals for 24 hours. The amounts of sodium and potassium in the urine were determined by the atomic absorption method and the amount of γ-CEHC by the ECD-HPLC method.
compound,measurement,setting,value
"CC(C)=CCC/C(C)=C/CC/C(C)=C/CCC1(C)CCc2cc(O)c(C)c(C)c2O1 (stereo not drawn) [γ-tocotrienol, 2,7,8-trimethyl-2-(4,8,12-trimethyltrideca-3,7,11-trienyl)chroman-6-ol]",amount of γ-CEHC excreted in urine for a period of up to 48 hours,[1],significantly higher than in the group given γ-tocopherol
same,γ-CEHC excreted into the bile,[2],larger in the group given γ-tocotrienol than in the group given γ-tocopherol
same,amount of potassium excreted in urine,"[3]; 4 groups (control and high-salt feed, with or without 10 mg γ-tocotrienol), atomic absorption method, FIG. 6",the influence of γ-tocotrienol administration was not observed
same,"volume of urine, corrected with creatinine","[3]; 10 mg γ-tocotrienol for 3 consecutive days versus stripped corn oil, over 24 hours",tended to be larger in the group given γ-tocotrienol
same,"volume of urine, corrected with creatinine","[3]; 10 mg γ-tocotrienol versus stripped corn oil, 6 to 12 hours after the administration",significantly increased for 6 to 12 hours after the administration
same,amount of sodium excreted in urine,"[3]; high-salt group, 10 mg γ-tocotrienol versus stripped corn oil, atomic absorption method, FIG. 5",significantly larger amount of excreted sodium for a period of up to 12 hours after the administration
